Measurements reported in patent publication US5162315A, “Penetration enhancers” (priority 1989, dated 1992).

Key:
[1] = type: in vitro ADME, human
Description: The compounds of the present invention were tested in vitro as penetration enhancers according to the procedure outlined below. The penetration enhancers were formulated with pharmacologically active agents in creams and permeation of the active agent through human stratum corneum in vitro was compared to control formulation without enhancer. Higher permeation of the active agent in presence of an enhancer exemplified the invention.
(§1) Human stratum corneum was isolated from full thickness human skin as described by Bronaugh et al., J. Pharm. Sci. 75, 1094 (1986). The skin was placed between the donor and the receptor compartments of diffusion cells in such a way that the dermal side of the skin faced the receptor compartment which was filled with normal saline (pH 7.2-7.4). The stratum corneum was equilibrated at 37° C. overnight prior to the application of a topical formulation or transdermal patch. All formulations were studied in triplicate.
(§2) About 500 mg of the following three Isosorbide Dinitrate (ISDN) formulations (40% ISDN & 60% Lactose) were applied to cover the stratum corneum surface within the donor compartment. The entire contents of the receptor compartment were removed at specific time intervals over 48 hours and replenished with fresh saline. The aliquots were analyzed by HPLC and the average cumulative amount of ISDN in micrograms permeating over the study period was calculated.
Procedure of Example 8 was repeated with the following Haloperiodol Decanoate (HD) cream formulations. Saline in the receptor compartment was substituted with saline/isopropyl alcohol (1:1).

[2] = type: in vitro ADME, human; remark: listed apart in the source
Description: The compounds of the present invention were tested in vitro as penetration enhancers according to the procedure outlined below.
as §1, §2
Procedure of Example 8 was repeated with the following

| Average Cumulative Amount of HD in Micrograms permeating over 51 hours [1] [Micrograms] | Average Cumulative Amount of HC in Micrograms permeating over 48 hours [2] [Micrograms] | HC permeation enhancement compared to cyclic isomer [2] | Compound | HD permeation compared to control [1] | HC permeation compared to control cream [2] |
| --- | --- | --- | --- | --- | --- |
| 936.66 ± 16.98 |  |  | CCCCCCCCCCCC(=O)N1CCN(CCO)CC1 [Example 5, 1-(1-oxododecyl)-4-(2-hydroxyethyl)piperazine] | higher HD permeation as compared to control |  |
| 617.68 ± 17.68 |  |  | CCCCCCCCCC(=O)OC1(c2ccc(Cl)cc2)CCN(CCCC(=O)c2ccc(F)cc2)CC1 [HD, Haloperiodol Decanoate, reference compound] |  |  |
|  | 55.19 ± 5.16 | as effective as its cyclic isomer | CCCCCCCCCCCC(=O)NCCNCCO [Example 1, N-[2-(2-hydroxyethyl)aminoethyl]dodecanamide] |  | superior permeation as compared to control cream |
|  | 67.53 ± 3.34 |  | CCCCCCCCCCCC1=NCCN1CCO [1-(2-hydroxyethyl)-2-undecyl-2-imidazoline, reference compound] |  |  |
